Drawing on US20080027042A1, “Novel Aminopyridine Derivatives Having Aurora a Selective Inhibitory Action” (priority 2004, published 2008), this text covers IC50 for 21 compounds.

Counter-ions that a name gives are not always drawn.

Assay [1] deals with T1, Aurora A (Homo sapiens, UniProt O14965).
T1 construct: histidine tag (N); made in house; host or cells: Escherichia coli BL21-CodonPlus(DE3)-RIL
T1 sequence (O14965 1-403): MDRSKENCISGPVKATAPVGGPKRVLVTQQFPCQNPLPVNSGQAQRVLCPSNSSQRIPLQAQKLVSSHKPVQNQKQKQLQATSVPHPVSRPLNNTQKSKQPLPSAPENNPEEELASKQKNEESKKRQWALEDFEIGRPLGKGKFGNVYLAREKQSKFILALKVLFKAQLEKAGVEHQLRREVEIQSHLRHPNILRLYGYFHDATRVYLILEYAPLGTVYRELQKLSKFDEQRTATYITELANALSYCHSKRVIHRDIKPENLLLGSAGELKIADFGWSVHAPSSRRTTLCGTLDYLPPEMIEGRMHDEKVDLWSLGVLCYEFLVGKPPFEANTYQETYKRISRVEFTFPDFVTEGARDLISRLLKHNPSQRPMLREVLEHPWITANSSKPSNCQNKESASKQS
Put plainly: Aurora A inhibitory action (33P-ATP kinase assay, Kemptide substrate). Particulars: 20 μM ATP, 30° C., 20 minutes. It is filed as biochemical. From the text:
Aurora A Inhibitory Action
(1) Purification of Aurora A
cDNA of Aurora A having histidine tag fused at the amino terminal was integrated into an expression vector, which was then highly expressed in Escherichia coli BL2 1-CodonPlus(DE3)-RIL cells. The Escherichia coli cells were recovered and solubilized, and then the histidine-tagged Aurora A protein was adsorbed onto a nickel chelate column and eluted from the column with imidazole. The active fraction was desalted with a desalting column to give a pure enzyme.
(2) Measurement of Activity of Aurora A
For measurement of the activity of Aurora A, the substrate used was Kemptide (Lys-Arg-Arg-Ala-Ser-Lys-Gly) (SEQ.ID.NO.: 1), a synthetic peptide purchased from Sigma-Aldrich, Inc. [Certificate of analysis (Upstate, Inc.)].
Reaction was conducted by a partial modification of a method by Upstate, Inc. [Kinase Profiler™ Assay Protocols]. The amount of the reaction liquid was 21.1 μL, and the composition of the reaction buffer (R2 buffer) was 50 mM Tris-hydrochloride buffer (pH 7.4)/15 mM magnesium acetate/0.2 mM ethylenediamine-N,N,N′,N′-tetraacetate (EDTA). To this, purified Aurora A, 100 μM of a substrate peptide, 20 μM of unlabeled adenosine triphosphate (ATP) and 0.5 μCi of [γ-^33P] labeled ATP (2,500 Ci/mmole or more) were added, and the mixture was reacted at 30° C. for 20 minutes. Then, 10 μL of 350 mM phosphate buffer was added to the reaction system to stop the reaction. The substrate peptide was adsorbed on a P81 paper filter 96-well plate and then washed with 130 mM phosphate buffer for several times. The radiation activity of the peptide was measured with a liquid scintillation counter. The [γ-^33P] labeled ATP was purchased from Amersham Biosciences Co., Ltd.
(§1) The compound to be tested was added to the reaction system such that a dilution series of the compound in dimethylsulfoxide was first prepared, and 1.1 μL of this solution was added. A control was provided by adding 1.1 μL of DMSO to the reaction system.

Assay [2] has as its target T2, Aurora B (Homo sapiens, UniProt Q96GD4).
T2 construct: histidine tag (N); made in house; host or cells: Escherichia coli BL21-CodonPlus(DE3)-RIL
Kind of assay: Aurora B inhibitory action (33P-ATP kinase assay, Kemptide substrate). The class given is biochemical. As to conditions: 100 μM ATP, 30° C., 20 minutes.
From the text: Aurora B Inhibitory Action
(1) Purification of Aurora B
cDNA of Aurora B having histidine tag fused at the amino terminal was integrated into an expression vector, which was then highly expressed in Escherichia coli BL21-CodonPlus(DE3)-RIL cells. The Escherichia coli cells were recovered and solubilized, and then the histidine-tagged […] protein was adsorbed onto a nickel chelate column and eluted from the column with imidazole. The active fraction was desalted with a desalting column to give a pure enzyme.
(2) Measurement of Activity of Aurora B
For measurement of the activity of Aurora B, the substrate used was Kemptide (Lys-Arg-Arg-Ala-Ser-Lys-Gly) (SEQ.ED.NO.: 1), a synthetic peptide purchased from Sigma-Aldrich, Inc. [Certificate of analysis (Upstate, Inc.)].
Reaction was conducted by a partial modification of the method of activity measurement for Aurora A. The amount of the reaction liquid was 21.1 μL, and the composition of the reaction buffer (R2 buffer) was 50 mM Tris-hydrochloride buffer (pH 7.4)/15 mM magnesium acetate/0.2 mM ethylenediamine-N,N,N′,N′-tetraacetate (EDTA). To this, purified Aurora B, 100 μM of a substrate peptide, 100 μM of unlabeled adenosine triphosphate (ATP) and 1 μCi of [γ-^33P] labeled ATP (2,500 Ci/mmole or more) were added, and the mixture was reacted at 30° C. for 20 minutes. Then, 10 μL of 350 mM phosphate buffer was added to the reaction system to stop the reaction. The substrate peptide was adsorbed on a P81 paper filter 96-well plate and then washed with 130 mM phosphate buffer for several times. The radiation activity of the peptide was measured with a liquid scintillation counter. The [γ-^33P] labeled ATP was purchased from Amersham Biosciences Co., Ltd.
as §1

T2 sequence (Q96GD4 whole entry): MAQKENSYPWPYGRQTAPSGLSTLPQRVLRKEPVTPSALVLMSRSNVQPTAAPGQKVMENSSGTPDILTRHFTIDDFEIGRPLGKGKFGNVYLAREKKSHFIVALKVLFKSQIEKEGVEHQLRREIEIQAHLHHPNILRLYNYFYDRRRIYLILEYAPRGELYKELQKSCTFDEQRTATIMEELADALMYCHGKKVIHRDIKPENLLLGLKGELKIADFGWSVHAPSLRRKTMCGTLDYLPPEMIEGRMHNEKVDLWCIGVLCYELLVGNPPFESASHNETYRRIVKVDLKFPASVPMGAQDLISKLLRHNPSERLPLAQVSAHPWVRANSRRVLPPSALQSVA

`O=C(c1cccc(Cl)c1F)N1CCN(Cc2cc(Cn3ccnn3)cc(Nc3nccs3)n2)CC1` [Example 90, 6-((4-(3-chloro-2-fluorobenzoyl)piperazin-1-yl)methyl)-N-thiazol-2-yl-4-(1H-1,2,3-triazol-1-ylmethyl)pyridin-2-amine trifluoroacetate]: the IC50 was 1.5 nM in assay [1] and 860 nM in assay [2].

With `CC(=O)Nc1cccc(C(=O)N2CCN(Cc3cccc(Nc4ncc(Cl)s4)n3)CC2)c1` [Example 72, 6-((4-(3-(acetylamino)benzoyl)piperazin-1-yl)methyl)-N-(5-chlorothiazol-2-yl)pyridin-2-amine], the IC50 stood at 27 nM in assay [1] and 170 nM in assay [2].

`C[C@@H]1CN(Cc2cccc(Nc3ncns3)n2)CCN1C(=O)c1ccccc1` [Example 33, 6-(((3R)-4-benzoyl-3-methylpiperazin-1-yl)methyl)-N-1,2,4-thiadiazol-5-ylpyridin-2-amine trifluoroacetate]: the IC50 in assay [1] is 50 nM; in assay [2] it was 3000 nM.

In the case of `O=C(c1cccc(Cl)c1F)N1CCN(Cc2cccc(Nc3ncc(F)s3)n2)CC1` [Example 112, 6-((4-(3-chloro-2-fluorobenzoyl)piperazin-1-yl)methyl)-N-(5-fluorothiazol-2-yl)pyridin-2-amine], the IC50 in assay [1] amounted to 0.81 nM; in assay [2] it was 230 nM.

Turning to `O=C(O)c1cc(CN2CCN(C(=O)c3cccc(Cl)c3F)CC2)nc(Nc2nccs2)c1` [Example 83, 2-((4-(3-chloro-2-fluorobenzoyl)piperazin-1-yl)methyl)-6-(thiazol-2-ylamino)isonicotinic acid], the IC50 in assay [1] is 0.64 nM; in assay [2], 800 nM.

With `O=C(c1cccc(C(F)(F)F)c1F)N1CCN(Cc2cncc(Nc3ncns3)n2)CC1` [Example 57, 6-((4-(2-fluoro-(3-trifluoromethyl)benzoyl)piperazin-1-yl)methyl)-N-1,2,4-thiadiazol-5-ylpyrazin-2-amine], the IC50 came to 15 nM in assay [1] and 28000 nM in assay [2].

As for “6-((4-(3-(dimethylamino)benzoyl)piperazin-1-yl)methyl)-N-(5-chlorothiazol-2-yl)pyridin-2-amine [Example 73]”, the IC50 in assay [1] is 17 nM; in assay [2], 410 nM.

For the compound `O=C(c1cccc(Cl)c1F)N1CCN(Cc2cc(Cn3cncn3)cc(Nc3nccs3)n2)CC1` [Example 92, 6-((4-(3-chloro-2-fluorobenzoyl)piperazin-1-yl)methyl)-N-thiazol-2-yl-4-(1H-1,2,4-triazol-1-ylmethyl)pyridin-2-amine trifluoroacetate], the IC50 in assay [1] is 0.93 nM; in assay [2] it was 830 nM.

For the compound `N#Cc1ccccc1C(=O)N1CCN(Cc2cccc(Nc3ncc(Cl)s3)n2)CC1` [Example 70, 6-((4-(2-cyanobenzoyl)piperazin-1-yl)methyl)-N-(5-chlorothiazol-2-yl)pyridin-2-amine], the IC50 worked out at 2.4 nM in assay [1] and 96 nM in assay [2].

Consider `Cc1nc(-c2cc(CN3CCN(C(=O)c4cccc(Cl)c4F)CC3)nc(Nc3nccs3)c2)no1` [Example 109, 6-((4-(3-chloro-2-fluorobenzoyl)piperazin-1-yl)methyl)-4-(5-methyl-1,2,4-oxadiazol-3-yl)-N-thiazol-2-ylpyridin-2-amine], for which the IC50 in assay [1] was found to be 0.42 nM; in assay [2], 520 nM.

Regarding `O=C(c1cccc(Cl)c1F)N1CCN(Cc2cccc(Nc3cc[nH]n3)n2)CC1` [Example 16, 6-((4-(3-chloro-2-fluorobenzoyl)piperazin-1-yl)methyl)-N-1H-pyrazol-3-ylpyridin-2-amine], the results for the IC50 in assay [1] and in assay [2] were 1.8 nM and 1300 nM, respectively.

Turning to `O=C(c1cccnc1F)N1CCN(Cc2cccc(Nc3ncc(Br)s3)n2)CC1` [Example 78, 6-((4-((2-fluoropyridin-3-yl)carbonyl)piperazin-1-yl)methyl)-N-(5-bromothiazol-2-yl)pyridin-2-amine], the figures for the concentration for half-maximal inhibition (IC50) in assay [1] and in assay [2] were 2 nM and 240 nM, respectively.

Turning to `O=C(c1nccs1)N1CCN(Cc2cccc(Nc3ncc(Cl)s3)n2)CC1` [Example 67, 6-((4-(thiazol-2-ylcarbonyl)piperazin-1-yl)methyl)-N-(5-chlorothiazol-2-yl)pyridin-2-amine], the IC50 in assay [1] was found to be 17 nM; in assay [2] it was 320 nM.

Consider `CS(=O)(=O)c1cccc(C(=O)N2CCN(Cc3cccc(Nc4ncc(Cl)s4)n3)CC2)c1` [Example 74, 6-((4-(3-(methanesulfonyl)benzoyl)piperazin-1-yl)methyl)-N-(5-chlorothiazol-2-yl)pyridin-2-amine], for which the IC50 in assay [1] worked out at 47 nM; in assay [2], 850 nM.

As to `O=C(c1cccc(F)c1Cl)N1CCN(Cc2cccc(Nc3nccs3)n2)CC1` [Example 9, 6-((4-(2-chloro-3-fluorobenzoyl)piperazin-1-yl)methyl)-N-thiazol-2-ylpyridin-2-amine], the IC50 in assay [1] was 1.3 nM; in assay [2] it was 760 nM.

On to `O=C(c1cccc(C(F)(F)F)c1)N1CCN(Cc2cccc(Nc3ncns3)n2)CC1` [Example 37, 6-((4-(3-(trifluoromethyl)benzoyl)piperazin-1-yl)methyl)-N-1,2,4-thiadiazol-5-ylpyridin-2-amine], for which the IC50 turned out to be 4.9 nM in assay [1] and 8800 nM in assay [2].

For the compound `O=C(NCCO)c1cc(CN2CCN(C(=O)c3cccc(Cl)c3F)CC2)nc(Nc2nccs2)c1` [Example 88, 2-((4-(3-chloro-2-fluorobenzoyl)piperazin-1-yl)methyl)-N-(2-hydroxyethyl)-6-(thiazol-2-ylamino)isonicotinamide trifluoroacetate], the IC50 in assay [1] stood at 0.72 nM; in assay [2], 1000 nM.

`O=C(c1cccc(C(F)(F)F)c1Cl)N1CCN(Cc2cncc(Nc3cc[nH]n3)n2)CC1` [Example 51, 6-((4-(2-chloro-3-(trifluoromethyl)benzoyl)piperazin-1-yl)methyl)-N-1H-pyrazol-3-ylpyrazin-2-amine trifluoroacetate]: the half-maximal inhibitory concentration (IC50) in assay [1] amounted to 0.98 nM; in assay [2], 930 nM.

For the compound `CC(c1cccc(Nc2cc[nH]n2)n1)N1CCN(C(=O)c2cccc(Cl)c2F)CC1` (stereo not drawn) [Example 24, 6-(1-(4-(3-chloro-2-fluorobenzoyl)piperazin-1-yl)ethyl)-N-1H-pyrazol-3-ylpyridin-2-amine], the IC50 in assay [1] was found to be 23 nM; in assay [2] it was 26000 nM.

Take `O=C(Cc1ccc(Cl)c(Cl)c1)N1CCN(Cc2cccc(Nc3cc[nH]n3)n2)CC1` [Example 21, 6-((4-((3,4-dichlorophenyl)acetyl)piperazin-1-yl)methyl)-N-1H-pyrazol-3-ylpyridin-2-amine trifluoroacetate]: the values for the IC50 in assay [1] and in assay [2] were 16 nM and 6800 nM, respectively.

Turning to `O=C(c1cccc(C(F)(F)F)c1F)N1C[C@H]2C[C@@H]1CN2Cc1cncc(Nc2cc[nH]n2)n1` [Example 48, 6-(((1R,4R)-5-(2-fluoro-3-(trifluoromethyl)benzoyl)-2,5-diazabicyclo[2.2.1]hept-2-yl)methyl)-N-1H-pyrazol-3-ylpyrazin-2-amine], the IC50 in assay [1] is 2.8 nM; in assay [2], 2900 nM.

As usually defined, the IC50 is the concentration needed to halve the response being measured. A lower IC50 goes with higher potency.
